CC(C)(C)c1cc(CCC(=O)NCCCCCCNC(=O)CCc2cc(C(C)(C)C)c(O)c(C(C)(C)C)c2)cc(C(C)(C)C)c1O
solubility (mole fraction)
Conditions	283.15 K	288.15 K	293.15 K	298.15 K	303.15 K	308.15 K	313.15 K	318.15 K	323.15 K
in acetone	0.00214	0.00257	0.00297	0.00328	0.00419	0.00585	0.00747	0.01	0.0152
in ethanol	0.00775	0.00841	0.00982	0.011	0.0126	0.0148	0.0178	0.0218	0.0264
in ethyl acetate	0.000614	0.000852	0.00109	0.00123	0.00155	0.00192	0.00258	0.00376	0.00527
in ethyl formate	0.00151	0.00205	0.00207	0.00254	0.00309	0.00406	0.00501	0.00622	0.00879
in isopropanol	0.00326	0.00345	0.004	0.00459	0.00552	0.00688	0.00872	0.0107	0.0129
in methanol	0.00197	0.0023	0.00263	0.0032	0.00388	0.00506	0.00666	0.00874	0.012
in methyl acetate	0.000498	0.000804	0.000846	0.00107	0.00137	0.00185	0.00239	0.00359	0.00538
in n-propanol	0.00711	0.00807	0.00974	0.0116	0.0128	0.0153	0.0183	0.0223	0.0254

— BigSolDB 2.1
